The text below walks through data of PMC5069690, “Hepatic 3D spheroid models for the detection and study of compounds with cholestatic liability” (Scientific Reports, 2016).

Where “and” joins values, the source holds several entries; their conditions need not be identical. Equal values may be shown once. Read-outs that look alike come from different tables or passages of the source.

For one data set, the system named is HepaRG spheroids. As to the kind of experiment: Repeated-exposure toxicity in HepaRG spheroids with or without BA mixture, cellular ATP content. To be noted: for CIx (mean of the independent experiments): 8 days co-exposure with BAs vs compound alone; for CC50: Homo sapiens, HepaRG, compound alone, read-out: Without BA EC50; for CC50 / Cholestatic Index (EC50 (+BA) / EC50 (-BA)): ATP, one value per independent experiment. The data set is classed as cell-based, human. The protocol: Cryopreserved differentiated HepaRG cells (Biopredic International, France) were thawed according to the supplier’s instructions. The cells were seeded in Williams’ medium E with GlutaMAX^TM containing the thaw, seed and general purpose additive (ADD670; Biopredic International). The cells were seeded at a density of 2,000 viable cells per well in ULA plates. From day 5, the spheroids were maintained in medium containing 0.5% DMSO, the serum-free induction additive (ADD650, Biopredic International), 20 ng/ml epidermal growth factor and 10 ng/ml hepatocyte growth factor (HumaXpress, Nordic BioSite, Sweden).
(§1) Toxicity studies were started at day 8 and day 5 for PHH and HepaRG spheroids, respectively.

For data set [1], the system named is ABCB11, SRXN1, NFE2L2, DR5 expression in PHH spheroids. As to the kind of experiment: RT-qPCR gene expression in PHH spheroids. The data set is classed as cell-based, human. To be noted: 8 days, co-exposure with non-toxic BA mixture compared to compound or BAs alone. Here is the method: (§2) Total RNA was extracted using Qiazol according to the manufacturer’s protocol. RNA was reverse-transcribed into cDNA with SuperScript III reverse transcriptase. RT-qPCR analysis was performed with a 7500 Fast Real-Time PCR system using a TaqMan Universal or SYBR Green mix.
In general terms: In qPCR the cycle at which signal appears reflects the starting amount.

In data set [2] the test system is multi-donor PHH spheroids. Description: Repeated-exposure toxicity in multi-donor PHH spheroids with or without BA mixture, albumin secretion. The data set is classed as cell-based, human. To be noted: for EC50: Homo sapiens, 336 h, 14 days repeated exposure; for Cholestatic Index (EC50 (+BA) / EC50 (-BA)) / Cholestatic risk classification based on CIx: 14 days; for Cholestatic risk classification based on CIx: multi-donor PHH spheroids. The protocol:
The cells were seeded in PHH medium (Williams’ medium E containing 100 units/ml penicillin, 100 μg/ml streptomycin, 2 mM L-glutamine, 10 μg/ml insulin, 5.5 μg/ml transferrin, 6.7 ng/ml sodium selenite, 100 nM dexamethasone) supplemented with 10% fetal bovine serum. […] When PHH had reassembled into compact aggregates (day 4–6 after seeding), spheroids were shifted to serum-free PHH medium. […] The spheroids were maintained in serum-free PHH medium.
as §1

Data set [3] deals with PHH spheroids. As to the kind of experiment: Repeated-exposure toxicity in PHH spheroids with or without BA mixture, cellular ATP content.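 As to all read-outs here: primary human hepatocyte spheroids dosed every second day with compound, with or without a bile acid mixture, viability read as cellular ATP by luminescence.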 Particulars: for CC50: Homo sapiens; for CC50 / Cholestatic Index (EC50 (+BA) / EC50 (-BA)): one value per independent experiment; for CIx (mean of the independent experiments): 8 days co-exposure with BAs vs compound alone; for Cholestatic Index (EC50 (+BA) / EC50 (-BA)): ATP.
Experimental: Cryopreserved PHH (Bioreclamation IVT, USA) were thawed according to the supplier’s instructions. The cells were seeded in PHH medium (Williams’ medium E containing 100 units/ml penicillin, 100 μg/ml streptomycin, 2 mM L-glutamine, 10 μg/ml insulin, 5.5 μg/ml transferrin, 6.7 ng/ml sodium selenite, 100 nM dexamethasone) supplemented with 10% fetal bovine serum. The cells were seeded at a density of 1,500 viable cells per well in ultra-low attachment (ULA) plates (Corning). When PHH had reassembled into compact aggregates (day 4–6 after seeding), spheroids were shifted to serum-free PHH medium. […] The hepatocytes were derived from 5 male and 5 female donors and were aggregated into 3D microtissues in GravityPLUS™ hanging drop plates and cultivated and assayed in GravityTRAP™ plates. The spheroids were maintained in serum-free PHH medium.
(§3) Stock solutions of the compounds were diluted in culture medium to a maximal final DMSO concentration of 0.3% for PHH spheroids and 0.6% for HepaRG spheroids. Toxicity studies were started at day 8 and day 5 for PHH and HepaRG spheroids, respectively. Spheroids were treated every other day with the compounds in the presence or absence of the BA mixture. Cellular ATP content was determined as a marker of cell viability using the CellTiter-Glo Luminescent Cell Viability Assay (Promega, Sweden). When indicated, albumin concentrations were determined by ELISA (Bethyl laboratories, USA).
(§4) To evaluate the cholestatic risk of the tested compounds we introduced the cholestatic index (CIx). The CIx is defined as the ratio between the EC50-value from co-exposure to a compound and the BA mixture and the EC50-value from exposure to the compound alone.

The test system of data set [4] is ABCB11, SRXN1, NFE2L2, DR5 expression in HepaRG spheroids. Description: RT-qPCR gene expression in HepaRG spheroids. To be noted: 8 days, co-exposure with non-toxic BA mixture compared to compound or BAs alone. The data set is classed as cell-based, human. Here is the method:
as §2

For the next data set, the system named is BSEP. Particulars: quoted in the discussion, no reference given; read-out: BSEP inhibition IC50; cited from earlier work.
The test system of data set [5] is PHH spheroids. Description: Toxicity in PHH spheroids with or without BA mixture, albumin secretion read-out (Supplementary Fig. S2). Particulars: 8 days, Supplementary Fig. S2B.
Experimental: as §3, §4
The mark [6] stands for this setting: 192 h, 8 days repeated exposure.
Where [7] appears, read: 336 h, 14 days repeated exposure.
The mark [8] stands for this setting: multi-donor PHH spheroids (10 donors), co-exposure with BA mixture, albumin secretion, read-out: With BA EC50.
Where [9] appears, read: multi-donor PHH spheroids (10 donors), compound alone, albumin secretion, read-out: Without BA EC50.
Where [10] appears, read: 192 h, read-out: Without BA EC50, PHH spheroids, 8 days repeated exposure, compound alone, ATP.
Where [11] appears, read: 336 h, read-out: Without BA EC50, PHH spheroids, 14 days repeated exposure, compound alone, ATP.
The mark [12] stands for this setting: multi-donor PHH spheroids (10 donors), albumin secretion.

As a reminder, the EC50 is the concentration needed to bring the measured effect to its halfway point. In the case of `CC(=O)Nc1ccc(O)cc1` [Acetaminophen, acetaminophen], the “CIx (mean of the independent experiments)” value is on record as 1.02 ± 0.03 in the data set with HepaRG spheroids and 1.89 ± 0.37 in the data set on PHH spheroids [3] (PHH spheroids). Also, the CC50 in the data set on HepaRG spheroids (setting [6]) amounted to 1600 µM; in the data set on HepaRG spheroids (setting [7]) it was 1000 µM; in the data set with PHH spheroids [3] (setting [10]), 1090 µM; in the data set with PHH spheroids [3] (setting [11]), 804 µM. Besides, the DR5 expression entry in data set [1] and in data set [4] was “no induction of DR5” in each case. Moreover, the NFE2L2 expression entry in data set [1] and in data set [4] was “no changes in SRXN1 or NFE2L2 expression” in each case. For the same compound, the SRXN1 expression entry in data set [1] and in data set [4] was “no changes in SRXN1 or NFE2L2 expression” in each case. For the same compound, the half-maximal effective concentration (EC50) in data set [2] (setting [8]) was found to be 1830 µM; in data set [2] (setting [9]), 1910 µM.
A word on the IC50: it is the midpoint of a concentration-inhibition curve. For the compound `COc1ccccc1Oc1c(NS(=O)(=O)c2ccc(C(C)(C)C)cc2)nc(-c2ncccn2)nc1OCCO` [Bosentan, bosentan], the “Cholestatic risk classification based on CIx” value in the data set on HepaRG spheroids (8 days) was “cholestatic risk (compounds with a CIx ≤ 0.80 were considered to have cholestatic risk)”; with PHH spheroids [3] (PHH spheroids, 8 days), “cholestatic risk (compounds with a CIx ≤ 0.80 were considered to have cholestatic risk)”. Moreover, the “CIx (mean of the independent experiments)” value with HepaRG spheroids is 0.60 ± 0.06; in the data set on PHH spheroids [3] (PHH spheroids), 0.19 ± 0.12. Further, the “Cholestatic Index (EC50 (+BA) / EC50 (-BA))” value was 0.63 and 0.54 and 0.64 in the data set with HepaRG spheroids (8 days); 0.61 and 0.50 and 0.48 in the data set on HepaRG spheroids (14 days); 0.53 in data set [2] (both, human); 0.11 and 0.12 and 0.16 in the data set on PHH spheroids [3] (PHH spheroids, 14 days). Also, the CC50 came to 187 µM in the data set with HepaRG spheroids (setting [6]), 115 µM in the data set on HepaRG spheroids (setting [7]), 66 µM in the data set with PHH spheroids [3] (setting [10]) and 55 µM in the data set on PHH spheroids [3] (setting [11]). Further, the EC50 in data set [2] (setting [8]) was 54 µM; in data set [2] (setting [9]), 102 µM. The IC50 in the data set with BSEP was 38.1 µM.
For `CCC(=O)O[C@H]1[C@H](O[C@@H]2[C@@H](C)[C@H](O[C@H]3C[C@@](C)(OC)[C@@H](O)[C@H](C)O3)[C@@H](C)C(=O)O[C@H](CC)[C@@](C)(O)[C@H](O)[C@@H](C)C(=O)[C@H](C)C[C@@]2(C)O)O[C@H](C)C[C@@H]1N(C)C` [Erythromycin estolate, erythromycin estolate], the EC50 was found to be 18 µM in data set [2] (setting [8]) and 28 µM in data set [2] (setting [9]). Also, the “Cholestatic Index (EC50 (+BA) / EC50 (-BA))” value in data set [2] (setting [12]) is 0.64. For the same compound, in data set [2], the “Cholestatic risk classification based on CIx” value is on record as “cholestatic risk (compounds with a CIx ≤ 0.80 were considered to have cholestatic risk)”.
As to `CN(CCOc1ccc(CC2SC(=O)NC2=O)cc1)c1ccccn1` (centres unmarked) [Rosiglitazone, rosiglitazone], the EC50 in data set [2] (setting [8]) was determined as 17 µM; in data set [2] (setting [9]), 19 µM. Moreover, the “Cholestatic Index (EC50 (+BA) / EC50 (-BA))” value in data set [2] (both, human) came out at 0.89.
As for `CN(C)[C@@H]1C(O)=C(C(N)=O)C(=O)[C@@]2(O)C(O)=C3C(=O)c4c(O)cccc4[C@@](C)(O)[C@H]3C[C@@H]12` [Tetracycline, tetracycline], the “Cholestatic risk classification based on CIx” value in the data set on HepaRG spheroids (8 days) was “low cholestatic risk (Compounds with a CIx ≥ 0.80)”; in the data set with HepaRG spheroids (14 days) it was “low cholestatic risk (Compounds with a CIx ≥ 0.80)”; in data set [2], “low cholestatic risk (Compounds with a CIx ≥ 0.80)”; in the data set with PHH spheroids [3] (PHH spheroids, 8 days), “low cholestatic risk (Compounds with a CIx ≥ 0.80)”; in the data set on PHH spheroids [3] (PHH spheroids, 14 days), “low cholestatic risk (Compounds with a CIx ≥ 0.80)”. For the same compound, the “CIx (mean of the independent experiments)” value is 1.05 ± 0.12 in the data set on HepaRG spheroids and 1.00 ± 0.08 with PHH spheroids [3] (PHH spheroids). Besides, the “Cholestatic Index (EC50 (+BA) / EC50 (-BA))” value with HepaRG spheroids (8 days) was 0.91 and 1.13 and 1.12; in the data set with HepaRG spheroids (14 days) it was 0.95 and 1.18 and 1.16; in data set [2] (setting [12]), 1.03; in the data set on PHH spheroids [3] (PHH spheroids, 8 days), 1.01 and 0.91 and 1.07; with PHH spheroids [3] (PHH spheroids, 14 days), 1.41 and 1.07 and 0.94. Further, the CC50 in the data set with HepaRG spheroids (setting [6]) was determined as 242 µM; in the data set on HepaRG spheroids (setting [7]), 121 µM; in the data set with PHH spheroids [3] (setting [10]) it was 116 µM; with PHH spheroids [3] (setting [11]), 74 µM. For the same compound, the EC50 in data set [2] (setting [8]) worked out at 123 µM; in data set [2] (setting [9]) it was 120 µM. Further, the CIx in the data set on PHH spheroids [5] is 1.08; in the data set on PHH spheroids [3] (PHH spheroids, 8 days, cellular ATP content read-out, Supplementary Fig. S2A), 0.87.
Turning to `Clc1ccccc1CN1CCc2sccc2C1` [Ticlopidine, ticlopidine], the concentration giving a half-maximal response (EC50) in data set [2] (setting [8]) came to 21 µM; in data set [2] (setting [9]) it was 23 µM.
For the compound `Cc1ccc(C(=O)c2cc(O)c(O)c([N+](=O)[O-])c2)cc1` [Tolcapone, tolcapone], the values for the concentration for a half-maximal effect (EC50) in data set [2] (setting [8]) and in data set [2] (setting [9]) were 13 µM and 14 µM, respectively. Moreover, in data set [2] (both, human), the “Cholestatic Index (EC50 (+BA) / EC50 (-BA))” value is listed as 0.93.
For `Cc1c(C)c2c(c(C)c1O)CCC(C)(COc1ccc(CC3SC(=O)NC3=O)cc1)O2` (centres unmarked) [Troglitazone, troglitazone], the “Cholestatic risk classification based on CIx” value with HepaRG spheroids (8 days) was “cholestatic risk (compounds with a CIx ≤ 0.80 were considered to have cholestatic risk)”; in the data set with PHH spheroids [3] (PHH spheroids, 8 days) it was “cholestatic risk (compounds with a CIx ≤ 0.80 were considered to have cholestatic risk)”. The “CIx (mean of the independent experiments)” value with HepaRG spheroids was found to be 0.71 ± 0.17; in the data set with PHH spheroids [3] (PHH spheroids), 0.80 ± 0.17. Also, the “Cholestatic Index (EC50 (+BA) / EC50 (-BA))” value was 0.56 and 0.90 and 0.67 in the data set on HepaRG spheroids (8 days); 0.63 in data set [2] (both, human); 0.99 and 0.72 and 0.67 in the data set on PHH spheroids [3] (PHH spheroids, 8 days); 0.45 and 0.67 and 0.86 with PHH spheroids [3] (PHH spheroids, 14 days). Also, the EC50 in data set [2] (setting [8]) amounted to 8.8 µM; in data set [2] (setting [9]), 14 µM. Besides, the CC50 is 11 µM in the data set with PHH spheroids [3] (setting [10]) and 6.2 µM in the data set with PHH spheroids [3] (setting [11]). In addition, the IC50 with BSEP was 2.7 µM.
